Each compound was assayed against T1, CPS1 (Homo sapiens, UniProt P31327) (assay: ADP-Glo endpoint assay measuring the ATPase activity of CPS1). Settings: geometric mean of a minimum of two values; 50 nM CPS1, 10 μM ATP, 0.2 mM NAG, 60 min at room temperature; read-out: ADPGlo IC50.
T1 construct: The full length, human CPS1 gene was cloned into pFastBac HTA; His6 (from the pFastBac HTA vector); made in house; host or cells: SF21 insect cells (baculovirus, Bac-to-bac)
T1 sequence (P31327 39-1500): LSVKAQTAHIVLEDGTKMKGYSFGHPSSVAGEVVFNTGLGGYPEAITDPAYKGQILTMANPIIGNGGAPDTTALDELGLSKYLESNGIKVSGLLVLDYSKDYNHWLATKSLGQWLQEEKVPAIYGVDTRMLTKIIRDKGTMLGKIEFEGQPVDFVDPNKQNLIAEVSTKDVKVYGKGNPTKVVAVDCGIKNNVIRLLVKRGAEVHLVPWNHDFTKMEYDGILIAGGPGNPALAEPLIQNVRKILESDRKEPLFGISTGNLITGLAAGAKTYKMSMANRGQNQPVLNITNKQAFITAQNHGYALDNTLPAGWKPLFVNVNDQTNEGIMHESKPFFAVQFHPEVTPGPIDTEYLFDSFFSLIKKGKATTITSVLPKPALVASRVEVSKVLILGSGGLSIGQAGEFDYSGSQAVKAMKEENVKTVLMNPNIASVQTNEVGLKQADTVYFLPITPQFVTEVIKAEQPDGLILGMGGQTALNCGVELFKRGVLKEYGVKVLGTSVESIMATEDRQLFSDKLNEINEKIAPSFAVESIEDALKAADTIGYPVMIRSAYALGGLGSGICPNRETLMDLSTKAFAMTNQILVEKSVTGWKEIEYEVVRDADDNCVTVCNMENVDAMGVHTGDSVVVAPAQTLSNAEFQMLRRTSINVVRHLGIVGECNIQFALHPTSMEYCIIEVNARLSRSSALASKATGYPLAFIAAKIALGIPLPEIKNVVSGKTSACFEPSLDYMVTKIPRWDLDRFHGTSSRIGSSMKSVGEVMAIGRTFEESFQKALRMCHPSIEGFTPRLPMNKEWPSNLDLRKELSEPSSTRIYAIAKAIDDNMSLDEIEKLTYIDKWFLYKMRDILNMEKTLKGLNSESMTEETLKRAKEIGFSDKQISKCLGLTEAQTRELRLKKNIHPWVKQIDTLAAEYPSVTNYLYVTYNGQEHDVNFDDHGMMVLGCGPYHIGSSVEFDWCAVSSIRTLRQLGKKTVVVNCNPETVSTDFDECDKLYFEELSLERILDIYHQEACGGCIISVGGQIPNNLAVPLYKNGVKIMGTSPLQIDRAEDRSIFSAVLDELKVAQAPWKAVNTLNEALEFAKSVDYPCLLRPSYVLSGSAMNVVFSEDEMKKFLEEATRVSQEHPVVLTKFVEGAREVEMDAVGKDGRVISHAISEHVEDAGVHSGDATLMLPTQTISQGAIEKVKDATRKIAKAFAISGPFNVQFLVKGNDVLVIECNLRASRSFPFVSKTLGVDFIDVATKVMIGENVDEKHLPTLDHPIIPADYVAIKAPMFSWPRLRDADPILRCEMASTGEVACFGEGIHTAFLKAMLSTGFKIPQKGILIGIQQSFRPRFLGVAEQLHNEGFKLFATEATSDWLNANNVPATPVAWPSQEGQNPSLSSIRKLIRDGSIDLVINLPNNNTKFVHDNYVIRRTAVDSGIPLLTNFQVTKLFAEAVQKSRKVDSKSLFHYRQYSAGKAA
Assay type: biochemical
Method in brief: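 Full-length human His-tagged CPS1 from SF21 insect cells, 50 nM, preincubated 20 min with compound in pH 7.0 HEPES buffer containing KHCO3, (NH4)2SO3, MgCl2 and 0.2 mM NAG. Reaction started with 10 μM ATP, 60 min at room temperature; ADP formed detected by ADP-Glo luminescence.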

SMILES	IC50 [µM]
COc1ccc(C(=O)N2[C@H](C)CN(C(=O)c3c[nH]c4c(Cl)cccc34)C[C@H]2C)c(F)c1 [Compound 36, (7-Chloro-1H-indol-3-yl)((3R,5R)-4-(2-fluoro-4-methoxybenzoyl)-3,5-dimethylpiperazin-1-yl)methanone]	1.15
COc1ccc(C(=O)N2[C@H](C)CN(C(=O)c3ccc(O)cc3F)C[C@H]2C)c(F)c1 [Compound 65, ((2R,6R)-4-(2-fluoro-4-hydroxybenzoyl)-2,6-dimethylpiperzin-1-yl)(2-fluoro-4-methoxyphenyl)methanone]	3.79
COc1ccc(C(=O)N2[C@H](C)CN(C(=O)c3ccc4c(c3)NC(=O)CO4)C[C@H]2C)c(F)c1 [Compound 35, 6-((3R,5R)-4-(2-Fluoro-4-methoxybenzoyl)-3,5-dimethylpiperazine-1-carbonyl)-2H-benzo[b][1,4]oxazin-3(4H)-one]	7.97
COc1ccc(C(=O)N2C[C@@H](C)N(C(=O)c3ccc(CCO)cc3)[C@H](C)C2)c(F)c1 [Compound 42, ((2R,6R)-4-(2-Fluoro-4-methoxybenzoyl)-2,6-dimethylpiperazin-1-yl)(4-(2-hydroxyethyl)phenyl)methanone]	10.7
COc1ccc(C(=O)N2C[C@@H](C)N(C(=O)c3ccc(F)cc3F)[C@H](C)C2)c(F)c1 [Compound 32, ((3R,5R)-4-(2,4-difluorobenzoyl)-3,5-dimethylpiperazin-1-yl)(2-fluoro-4-methoxyphenyl)methanone]	1.44
COc1ccc(C(=O)N2CCN(C(=O)c3ccc(OC)cc3F)CC2)c(F)c1 [Compound 44, Piperazine-1,4-diylbis((2-fluoro-4-methoxyphenyl)methanone)]	7.78
COc1ccc(C(=O)N2C[C@@H](C)N(C(=O)c3ccc(OC(F)F)cc3F)[C@H](C)C2)c(F)c1 [Compound 33, ((3R,5R)-4-(4-(difluoromethoxy)-2-fluorobenzoyl)-3,5-dimethylpiperazin-1-yl)(2-fluoro-4-methoxyphenyl)methanone]	2.54
COc1ccc(C(=O)N2[C@H](C)CN(C(=O)c3ccc(N(C)C)cc3F)C[C@H]2C)c(F)c1 [Compound 20, ((2R,6R)-4-(4-(Dimethylamino)-2-fluorobenzoyl)-2,6-dimethylpiperazin-1-yl)(2-fluoro-4-methoxyphenyl)methanone]	3.96
COc1ccc(C(=O)N2[C@H](C)CN(C(=O)c3ccc4nc[nH]c4c3)C[C@H]2C)c(F)c1 [Compound 38, ((2R,6R)-4-(1H-Benzo[d]imidazole-5-carbonyl)-2,6-dimethylpiperazin-1-yl)(2-fluoro-4-methoxyphenyl)methanone]	4.91
COc1ccc(C(=O)N2[C@H](C)CN(C(=O)c3ccc(OC(F)(F)F)cc3F)C[C@H]2C)c(F)c1 [Compound 1, ((2R,6R)-4-(2-Fluoro-4-(trifluoromethoxy)benzoyl)-2,6-dimethylpiperazin-1-yl)(2-fluoro-4-methoxyphenyl)methanone]	0.672
COc1ccc(C(=O)N2[C@H](C)CN(C(=O)c3c[nH]c4ccc(Cl)cc34)C[C@H]2C)c(F)c1 [Compound 61, (5-chloro-1H-indol-3-yl)((3R,5R)-4-(2-fluoro-4-methoxybenzoyl)-3,5-dimethylpiperazin-1-yl)methanone]	7.39

Now from value to compound:

IC50 [µM]	SMILES
> 66.7	COc1ccc(C(=O)N2[C@H](C)CN(C(=O)c3cc(NC(C)=O)ccc3F)C[C@H]2C)c(F)c1 [Compound 103, N-(4-fluoro-3-((3R,5R)-4-(2-fluoro-4-methoxybenzoyl)-3,5-dimethylpiperazine-1-carbonyl)phenyl)acetamide]
15.8	COc1ccc(C(=O)N2C[C@@H](C)N(C(=O)c3ccc4c(c3)CCCO4)[C@H](C)C2)c(F)c1 [Compound 74, ((3R,5R)-4-(chroman-6-carbonyl)-3,5-dimethylpiperazin-1-yl)(2-fluoro-4-methoxyphenyl)methanone]
36.1	COc1ccc(C(=O)N2CCN(C(=O)c3ccc(OC)cc3F)C(C)C2C)c(F)c1 (stereo not shown) [Compound 86, (2,3-dimethylpiperazine-1,4-diyl)bis((2-fluoro-4-methoxyphenyl)methanone)]
4.22	COc1ccc(C(=O)N2C[C@@H](C)N(C(=O)/C=C/c3ccc(O)cc3)[C@H](C)C2)c(F)c1 [Compound 106, (E)-1-((2R,6R)-4-(2-fluoro-4-methoxybenzoyl)-2,6-dimethylpiperazin-1-yl)-3-(4-hydroxypheny)prop-2-en-1-one]
34.1	COc1ccc(C(=O)N2C[C@@H](C)N(C(=O)c3cccc(O)c3)[C@H](C)C2)c(F)c1 [Compound 85, ((2R,6R)-4-(2-fluoro-4-methoxybenzoyl)-2,6-dimethylpiperazin-1-yl)(3-hydroxyphenyl)methanone]
> 66.7	COc1ccc(C(=O)N2C[C@@H](C)N(C(=O)c3ccc(NC(C)=O)cc3F)[C@H](C)C2)c(F)c1 [Compound 93, N-(3-fluoro-4-((2R,6R)-4-(2-fluoro-4-methoxybenzoyl)-2,6-dimethylpiperazine-1-carbonyl)phenyl)acetamide]
> 66.7	COc1ccc(OC)c2[nH]c(C(=O)N3C[C@@H](C)N(C(=O)Cc4cc5ccccc5[nH]4)[C@H](C)C3)cc12 [Compound 91, 1-((2R,6R)-4-(4,7-dimethoxy-1H-indole-2-carbonyl)-2,6-dimethylpiperazin-1-yl)-2-(1H-indol-2-yl)ethanone]

The compounds below were run against T1, CPS1 (assay: Assay 2 - Transcreener ADP FP assay (ADP formation from CPS1)). Settings: 10 nM CPS1, varying amounts of ATP, 60 min, fluorescence polarization.
Assay type: biochemical
Experimental: CPS1 was expressed and purified from SF21 insect cells. The full length, human CPS1 gene was cloned into pFastBac HTA and baculovirus was generated using the Bac-to-bac expression system from Invitrogen. P3 virus was used to infect SF21 insect cells at a density of 1.5E6 cells/mL at an MOI of 2. Cells were harvested by centrifugation after 60 hrs and the cell pellet resuspended in lysis buffer (50 mM glycyl glycine pH 7.4, 20 mM KCl, 1 mM TCEP, 10% glycerol and 20 mM imidazole with Roche protease inhibitor tablet) before being lysed with 40 strokes of a Dounce homogenizer on ice. The insoluble fraction of the lysate was then cleared by centrifugation at 30,000 rpm for 30 min. 40 mL of supernatant was mixed with 2 mL of Ni NTA beads for 45 min at 4° C. in a 50 mL conical tube.
The beads were washed with 40 mL of wash buffer (50 mM glycyl glycine pH 7.4, 500 mM NaCl, 1 mM TCEP, 10% glycerol and 50 mM imidazole) by centrifugation and resuspension of the beads three times. Bound CPS1 protein was eluted in 6 mL of elution buffer (50 mM glycyl glycine pH 7.4, 500 mM NaCl, 1 mM TCEP, 10% glycerol and 250 mM imidazole) three times. Elution fractions were combined and concentrated using an Amicon Ultra centrifugation filter with a 10,000 molecular weight cut off. […]
ADP formation from CPS1 was measured in an endpoint assay using the Transcreener ADP FP kit from BellBbrook (Cat #3010-1K).

IC50 [µM]	SMILES
> 66.7	COc1ccc(C(=O)N2[C@H](C)CN(C(=O)c3cc(OC)ccc3F)C[C@@H]2C)c(F)c1 [Compound 108, ((3S,5R)-4-(2-fluoro-4-methoxybenzoyl)-3,5-dimethylpiperazin-1-yl)(2-fluoro-5-methoxyphenyl)methanone]
